Results on 10 molecules are retold here after patent US7459557B2, “Substituted isoindole-1,3-diones” (Janssen Pharmaceutica N.V., priority 2005, dated 2008).

The target in assay [1] is T1, α1d-AR (Homo sapiens, UniProt P25100).
T1 construct: expressed in transfected cells; host or cells: COS-7 (African Green monkey kidney) cell membranes
T1 sequence (P25100 1-572): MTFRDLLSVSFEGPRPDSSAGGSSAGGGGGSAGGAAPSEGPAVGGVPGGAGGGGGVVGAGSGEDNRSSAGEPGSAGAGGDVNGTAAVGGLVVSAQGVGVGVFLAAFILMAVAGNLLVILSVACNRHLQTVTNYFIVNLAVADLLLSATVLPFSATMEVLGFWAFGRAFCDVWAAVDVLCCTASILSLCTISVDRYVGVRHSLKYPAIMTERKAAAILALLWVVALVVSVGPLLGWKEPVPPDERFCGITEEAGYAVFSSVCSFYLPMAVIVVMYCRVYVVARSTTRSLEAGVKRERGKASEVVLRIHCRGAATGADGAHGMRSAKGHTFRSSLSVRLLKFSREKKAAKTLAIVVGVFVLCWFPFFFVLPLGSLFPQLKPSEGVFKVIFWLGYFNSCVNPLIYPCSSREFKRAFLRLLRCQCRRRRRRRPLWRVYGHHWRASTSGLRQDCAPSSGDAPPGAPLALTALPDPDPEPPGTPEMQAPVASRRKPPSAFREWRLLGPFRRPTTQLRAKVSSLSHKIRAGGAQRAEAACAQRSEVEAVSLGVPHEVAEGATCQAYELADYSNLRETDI
The experiment in a line: α1-adrenergic receptor radio-ligand (125I-HEAT) binding assay, α1d subtype. Particulars: COS-7 cell membranes transfected with α1d subtype, 125I-HEAT 50 pM. The method, then: (§1) α1-Adrenergic Receptor Binding Assay
(§2) Preparation of COS Cell Membranes
(§3) Membranes were prepared from COS-7 cells (African Green monkey kidney SV40-transformed cells) that had been transfected with one of the three α1-AR subtypes (Genbank accession number for the α1a subtype: AF013261; Genbank accession number for the α1b subtype: NM000679; Genbank accession number for the α1d subtype: NM000678) using the following method: COS cells from ten 100 mm tissue culture plates were scraped into a 5 mL volume of TE (a mixture of 50 mM Tris-HCl, 5 mM EDTA, pH 7.4). The cell suspension was disrupted with a Brinkman Polytron (at a setting of 8) for 10 sec. The disrupted cells were centrifuged at 1000×g for 10 min at 4° C. Supernatants were centrifuged at 34,500×g for 20 min at 4° C. The membrane pellets were suspended in a 2 mL volume of TNE (a mixture of 50 mM Tris-HCl, 5 mM EDTA and 150 mM NaCl at pH 7.4). An aliquot of the membrane suspension was stored at −70° C. until use. The protein concentration was determined using the BioRad “DC” protein assay kit following membrane solubilization with Triton X-100.
(§4) Radio-Ligand Binding Assay
(§5) Triplicate determinations of radio-ligand binding in the presence of increasing concentrations of testing compound were made. The reagents were added to 96-well polypropylene plate wells. […] The plate was incubated at rt for 1 hr. The contents of the wells were filtered through a glass filter (type C) (GF/C) membrane Unifilter plate (Packard Instruments) using the Packard Filtermate cell harvester. The filter plates were dried in a vacuum oven for 30 min at 40° C. 25 μL Microscint 20 liquid scintillation fluid (Packard Instuments) was added to each well. The radioactive content was analyzed in the TopCount microplate scintillation counter (Packard Instruments).

Assay [2] has as its target T2, α1b-AR (Homo sapiens, UniProt P35368).
T2 construct: expressed in transfected cells; host or cells: COS-7 (African Green monkey kidney) cell membranes
T2 sequence (P35368 1-520): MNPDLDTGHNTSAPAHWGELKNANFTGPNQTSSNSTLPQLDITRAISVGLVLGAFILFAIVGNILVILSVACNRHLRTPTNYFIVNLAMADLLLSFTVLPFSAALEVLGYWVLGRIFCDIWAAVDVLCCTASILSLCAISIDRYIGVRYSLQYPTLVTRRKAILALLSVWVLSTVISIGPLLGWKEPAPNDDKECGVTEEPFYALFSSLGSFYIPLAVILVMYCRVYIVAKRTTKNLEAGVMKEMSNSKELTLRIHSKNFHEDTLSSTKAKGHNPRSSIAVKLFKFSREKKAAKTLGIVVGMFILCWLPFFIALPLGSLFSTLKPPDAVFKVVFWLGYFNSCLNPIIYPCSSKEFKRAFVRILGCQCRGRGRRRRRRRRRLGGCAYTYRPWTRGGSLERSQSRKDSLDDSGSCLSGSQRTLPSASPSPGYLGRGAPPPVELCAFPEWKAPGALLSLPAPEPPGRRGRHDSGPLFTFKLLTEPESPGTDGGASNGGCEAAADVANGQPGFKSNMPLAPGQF
Nature of the assay: α1-adrenergic receptor radio-ligand (125I-HEAT) binding assay, α1b subtype. To be noted: COS-7 cell membranes transfected with α1b subtype, 125I-HEAT 50 pM. The method, then: as §1, §2, §3, §4
Triplicate determinations of radio-ligand binding in the presence of increasing concentrations of testing compound were made. The reagents were added to 96-well polypropylene plate wells. Each assay well contained 140 μL TNE, 25 μL ^125I-2-(β-4-hydroxyphenyl)ethylaminomethyltetralone (^125I-HEAT) (specific activity 2200 Ci/mmol, Dupont-New England Nuclear, 50 pM final), 10 μL testing compound dissolved in dimethyl sulfoxide (DMSO) (1 pM to 10 μM in half-log increments, final), and 25 μL appropriate α1-AR membrane subtype suspension in TNE (0.5 ng/μL for the α1a and α1b subtypes and 13 ng/μL for the α1d subtype). The plate was incubated at rt for 1 hr. The contents of the wells were filtered through a glass filter (type C) (GF/C) membrane Unifilter plate (Packard Instruments) using the Packard Filtermate cell harvester. The filter plates were dried in a vacuum oven for 30 min at 40° C. 25 μL Microscint 20 liquid scintillation fluid (Packard Instuments) was added to each well. The radioactive content was analyzed in the TopCount microplate scintillation counter (Packard Instruments).
The Ki values (in nM) shown in Table 1 were determined using GraphPad Prism software.

In assay [3] the target is T3, α1a-AR (Homo sapiens, UniProt P35348).
T3 construct: expressed in transfected cells; host or cells: COS-7 (African Green monkey kidney) cell membranes
T3 sequence (P35348 1-455 isoform P35348-4): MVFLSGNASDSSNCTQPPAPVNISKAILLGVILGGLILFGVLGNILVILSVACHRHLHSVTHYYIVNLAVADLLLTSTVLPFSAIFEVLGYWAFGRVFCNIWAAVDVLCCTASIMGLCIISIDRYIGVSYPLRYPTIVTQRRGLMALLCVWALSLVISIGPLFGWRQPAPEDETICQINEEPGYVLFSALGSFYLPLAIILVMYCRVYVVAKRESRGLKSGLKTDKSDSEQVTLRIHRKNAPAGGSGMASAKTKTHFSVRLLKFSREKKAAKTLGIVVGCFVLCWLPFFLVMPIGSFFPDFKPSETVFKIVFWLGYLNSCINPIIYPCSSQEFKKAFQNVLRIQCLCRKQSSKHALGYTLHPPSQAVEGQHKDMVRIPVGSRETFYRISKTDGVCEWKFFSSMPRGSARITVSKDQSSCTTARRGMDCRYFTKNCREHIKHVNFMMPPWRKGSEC
Nature of the assay: α1-adrenergic receptor radio-ligand (125I-HEAT) binding assay, α1a subtype. Particulars: COS-7 cell membranes transfected with α1a subtype, 125I-HEAT 50 pM. How it is done:
as §1, §2, §3, §4, §5

Assay [4] concerns α1a and α1d subtypes over the α1b subtype. To be noted: cited from earlier work.

Where “and” joins values, the source holds several entries; their conditions need not be identical. Equal values may be shown once.

The Ki is the dissociation constant of the complex between target and ligand, obtained from inhibition or displacement. Lower therefore signals higher affinity.

Turning to `CC(C)Oc1ccccc1N1CCN(C2CCC(N3C(=O)c4ccc5ccccc5c4C3=O)CC2)CC1` (mixture of isomers) [Cpd 7, 2-{4-[4-(2-isopropoxy-phenyl)-piperazin-1-yl]-cyclohexyl}-benzo[e]isoindole-1,3-dione], the Ki in assay [1] was 0.27 nM and 0.13 nM; in assay [2] it was 16 nM and 14 nM; in assay [3] it was 0.58 nM and 3 nM.

In the case of `CC(C)Oc1ccccc1N1CCN([C@H]2CC[C@@H](N3C(=O)c4ccc5ccc(F)cc5c4C3=O)CC2)CC1` [Cpd 8, 8-fluoro-r-2-{c-4-[4-(2-isopropoxy-phenyl)-piperazin-1-yl]-cyclohexyl}-benzo[e]isoindole-1,3-dione], the Ki in assay [1] worked out at 16.4 nM; in assay [2], 269 nM; in assay [3] it was 15 nM.

On to `CCOc1ccccc1OCCN[C@H](C)Cc1ccc(OC)c(S(N)(=O)=O)c1` [Tamsulosin], for which the “selectivity for the α1a and α1d subtypes over the α1b subtype” value in assay [4] is “about 15 fold”.

Turning to `CC(C)Oc1ccccc1N1CCN(C2CCC(N3C(=O)c4c(F)c(F)c(F)c(F)c4C3=O)CC2)CC1` (mixture of isomers) [Cpd 1, 4,5,6,7-tetrafluoro-2-{4-[4-(2-isopropoxy-phenyl)-piperazin-1-yl]-cyclohexyl}-isoindole-1,3-dione], the results for the Ki in assay [1], in assay [2] and in assay [3] were 30.2 nM, 4110 nM and 37.8 nM, respectively.

On to `CC(C)Oc1ccccc1N1CCN([C@H]2CC[C@H](N3C(=O)c4ccc5ccc(F)cc5c4C3=O)CC2)CC1` [Cpd 9, 8-fluoro-r-2-{t-4-[4-(2-isopropoxy-phenyl)-piperazin-1-yl]-cyclohexyl}-benzo[e]isoindole-1,3-dione], for which the Ki is 0.61 nM and 0.3 nM in assay [1]; 35 nM and 58 nM in assay [2]; 1.9 nM and 5.9 nM in assay [3].

As for `CC(C)Oc1ccccc1N1CCN(C2CCC(N3C(=O)c4cc(Cl)c(Cl)cc4C3=O)CC2)CC1` (mixture of isomers) [Cpd 2, 5,6-dichloro-2-{4-[4-(2-isopropoxy-phenyl)-piperazin-1-yl]-cyclohexyl}-isoindole-1,3-dione], the Ki was 0.31 nM in assay [1], 1080 nM in assay [2] and 2.69 nM in assay [3].

With `CC(C)Oc1ccccc1N1CCN(C2CCC(N3C(=O)c4ccncc4C3=O)CC2)CC1` (mixture of isomers) [Cpd 6, 2-{4-[4-(2-isopropoxy-phenyl)-piperazin-1-yl]-cyclohexyl}-pyrrolo[3,4-c]pyridine-1,3-dione], the Ki was determined as 0.77 nM in assay [1], 22.4 nM in assay [2] and 0.43 nM in assay [3].

In the case of `CC(C)Oc1ccccc1N1CCN([C@H]2CC[C@@H](N3C(=O)c4cccc(F)c4C3=O)CC2)CC1` [Cpd 4, 4-fluoro-r-2-{c-4-[4-(2-isopropoxy-phenyl)-piperazin-1-yl]-cyclohexyl}-isoindole-1,3-dione], the Ki in assay [1] was 3.24 nM and 13.5 nM and 28 nM; in assay [2] it was 164 nM and 129 nM and 88 nM; in assay [3], 0.873 nM and 1.1 nM and 0.95 nM.

Turning to `CC(C)Oc1ccccc1N1CCN([C@H]2CC[C@H](N3C(=O)c4cccc(F)c4C3=O)CC2)CC1` [Cpd 3, 4-fluoro-r-2-{t-4-[4-(2-isopropoxy-phenyl)-piperazin-1-yl]-cyclohexyl}-isoindole-1,3-dione], the Ki was 0.09 nM in assay [1], 17.9 nM in assay [2] and 0.2 nM in assay [3].

As for `CC(C)Oc1ccccc1N1CCN(C2CCC(N3C(=O)c4cccnc4C3=O)CC2)CC1` (mixture of isomers) [Cpd 5, 6-{4-[4-(2-isopropoxy-phenyl)-piperazin-1-yl]-cyclohexyl}-pyrrolo[3,4-b]pyridine-5,7-dione], the Ki in assay [1] stood at 1.45 nM; in assay [2], 44.6 nM; in assay [3] it was 0.75 nM.
